{"source": "patent US20190254274A1", "about": "“COMPOSITE MATERIALS DESIGNED TO POSSES BIO-ACTIVE PROPERTIES AND SYNTHESIS AND USES THEREO” (ADA Foundation, priority 2018, published 2019)", "format_in_all_cases": "cell-based", "key": {"[1]": {"tested_on": "Resolvin D2 (RvD2) expression and release", "assay": "Resolvin D2 ELISA, LPS-challenged human macrophages", "description": "(§1) All chemicals, unless otherwise indicated, were procured from Sigma-Aldrich and used without additional purification. Stock solutions of Docosahexaenoic acid (DHA) in Dimethyl Sulfoxide (DMSO), Aspirin in physiologically buffered saline (PBS, pH 7.4) were prepared prior to their use. E. Coli derived Lipopolysaccharide (LPS) was reconstituted at 1 ug/mL, sterile filtered, and stored at −80 C until needed. RAW 264.7 murine macrophage cell line was obtained from ATCC (Manassas, Va.). Cells were thawed at passage 5 or 6 and were maintained in DMEM complete growth media supplemented with 10% FBS (Hyclone, GE Healthcare)+1% Penn/strep (Gibco) until needed. Peripheral blood derived primary human CD14+monocytes (BioreclamationlVT, Albany, N.Y.) were also maintained in DMEM growth media until needed. Prior to experimentation, monocytes were differentiated to macrophages by using macrophage colony stimulating factor (M-CSF) at 25 ng/mL in media for up to three days or until cells had reached near confluence (˜95%). RAW 264.7 cells were seeded at roughly 5,000 cells per well in a 96-well plate and allowed to grow to near confluence. At confluence, cells were pre-treated with LPS for 2 hours. At the 2-hour mark, cells were treated with DMEM media containing DMSO (1% w/w, negative control), Aspirin (positive control, 10 nmol/L), DHA (100 umol/L) or a combination of the two. Bio-active composite material Hydroxyapatite-Docosahexaenoic acid (HA-DHA) was dispersed in DMSO and delivered at similar concentrations as DHA alone (described above). Cells were harvested at 2, 4, and 6 hours after LPS stimulation. Human CD14+ cells were seeded at roughly 3.3*10^4 cells per well in a 96-well plate and treated with MCSF until full confluence. Cells were treated with LPS for 2 hours, at which time they were exposed to the same treatments described above for RAW 264.7 cells. Cells were harvested at 4 and 6 hours. […]\n(§2) Following each treatment, sample media was tested for inflammatory tumor necrosis factor alpha (TNF-alpha) expression using a commercially available sandwich ELISA kits designed for either mouse or human cells (R&D Systems). Samples showing reduction in TNF-alpha were further analyzed using the Resolvin D1 and Resolvin D2 ELISA kits (Cayman Chemical). Mean and standard deviations were calculated for each analyte. ELISA results were normalized to the total protein readings of each well. […]\n(§3) To investigate further the anti-inflammatory effects the inventors observed in both human and murine macrophages challenged with pathogenic LPS and to determine if the bio-active composite material HA-DHA on its' own and in combination with Aspirin induces formation of pro-resolution mediators, the inventors measured Resolvin production secreted from challenged human macrophages."}, "[2]": {"tested_on": "Resolvin D1 (RvD1) expression and release", "assay": "Resolvin D1 ELISA, LPS-challenged human macrophages", "description": "as §1, §2, §3"}, "[3]": {"tested_on": "TNF-alpha expression in primary human CD14+ cells", "assay": "TNF-alpha ELISA in LPS-stimulated human CD14+ monocyte-derived macrophages", "conditions": "2 hr LPS+4 hr Tx", "description": "All chemicals, unless otherwise indicated, were procured from Sigma-Aldrich and used without additional purification. Stock solutions of Docosahexaenoic acid (DHA) in Dimethyl Sulfoxide (DMSO), Aspirin in physiologically buffered saline (PBS, pH 7.4) were prepared prior to their use. E. Coli derived Lipopolysaccharide (LPS) was reconstituted at 1 ug/mL, sterile filtered, and stored at −80 C until needed. RAW 264.7 murine macrophage cell line was obtained from ATCC (Manassas, Va.). Cells were thawed at passage 5 or 6 and were maintained in DMEM complete growth media supplemented with 10% FBS (Hyclone, GE Healthcare)+1% Penn/strep (Gibco) until needed. Peripheral blood derived primary human CD14+monocytes (BioreclamationlVT, Albany, N.Y.) were also maintained in DMEM growth media until needed. […]\nas §2"}, "[4]": {"conditions": "2 hours LPS + 6 hours treatment (Table 5)"}, "[5]": {"conditions": "earlier time point (FIG. 19, Table 2)"}}, "data": [{"compound": "CC/C=C\\C/C=C\\C/C=C\\C/C=C\\C/C=C\\C/C=C\\CCC(=O)O", "note": "[DHA, 4Z, 7Z, 10Z, 13Z, 16Z, 19Z)-docosa-4,7,10,13,16,19-hexaenoic acid]", "values": [{"measurement": "Resolvin D2 (RvD2) expression (Mean)", "setting": "[1]; 2 hour LPS+4 hr Tx (Table 4)", "result": 194.2}, {"measurement": "Resolvin D2 (RvD2) expression (Mean)", "setting": "[1]; [4]", "result": 161.9}, {"measurement": "Resolvin D1 (RvD1) expression and release (Mean)", "setting": "[2]; 2-hour+6-hour Tx (Table 3)", "result": 678}, {"measurement": "Resolvin D1 (RvD1) expression and release (Mean)", "setting": "[2]; [5]", "result": 771.1}, {"measurement": "TNF-alpha expression (Mean)", "setting": "[3]", "result": 10.5, "unit": "pg/µg"}]}, {"compound": "CC(=O)Oc1ccccc1C(=O)O", "note": "[Aspirin]", "values": [{"measurement": "Resolvin D2 (RvD2) expression (Mean)", "setting": "[1]; 2 hour LPS+4 hr Tx (Table 4)", "result": 25.02}, {"measurement": "Resolvin D2 (RvD2) expression (Mean)", "setting": "[1]; [4]", "result": 73.25}, {"measurement": "Resolvin D1 (RvD1) expression and release (Mean)", "setting": "[2]; 2-hour+6-hour Tx (Table 3)", "result": 16.96}, {"measurement": "Resolvin D1 (RvD1) expression and release (Mean)", "setting": "[2]; [5]", "result": 18.87}, {"measurement": "TNF-alpha expression (Mean)", "setting": "[3]", "result": 9.1, "unit": "pg/µg"}]}]}
